Assay results from PMC3368886, “ATPase Cycle and DNA Unwinding Kinetics of RecG Helicase” (PLoS ONE, 2012).
pKd: −log10 of the molar value.

Experiments:
[1] = molecular target: T1, RecG⋅DNA(A40:B40) (Thermotoga maritima, UniProt Q9WY48); assay: Kinetic model simulation of single turnover of mantATP; assay type: biochemical
T1 construct: made in house
T1 sequence (Q9WY48 1-780): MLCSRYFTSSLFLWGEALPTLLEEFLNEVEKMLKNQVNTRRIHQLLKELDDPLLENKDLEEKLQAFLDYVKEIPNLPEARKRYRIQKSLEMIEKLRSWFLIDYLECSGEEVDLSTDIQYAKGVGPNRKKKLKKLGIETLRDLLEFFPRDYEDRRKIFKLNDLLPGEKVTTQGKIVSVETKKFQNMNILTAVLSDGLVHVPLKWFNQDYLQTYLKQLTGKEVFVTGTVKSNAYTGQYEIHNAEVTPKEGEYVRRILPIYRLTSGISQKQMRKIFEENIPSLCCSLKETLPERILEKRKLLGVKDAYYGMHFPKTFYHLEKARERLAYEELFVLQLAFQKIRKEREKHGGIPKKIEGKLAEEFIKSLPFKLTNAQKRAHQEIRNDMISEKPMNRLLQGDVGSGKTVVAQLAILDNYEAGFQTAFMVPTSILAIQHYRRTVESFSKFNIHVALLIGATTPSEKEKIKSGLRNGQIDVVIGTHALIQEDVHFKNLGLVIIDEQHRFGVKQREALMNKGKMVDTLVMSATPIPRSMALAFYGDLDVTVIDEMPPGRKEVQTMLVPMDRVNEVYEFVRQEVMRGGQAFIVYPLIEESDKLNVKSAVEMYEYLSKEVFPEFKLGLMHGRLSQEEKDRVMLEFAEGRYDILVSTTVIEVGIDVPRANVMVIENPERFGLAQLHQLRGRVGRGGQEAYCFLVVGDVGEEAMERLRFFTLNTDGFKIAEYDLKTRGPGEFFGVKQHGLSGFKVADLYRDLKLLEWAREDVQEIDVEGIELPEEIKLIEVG
Experimental: In order to test the data obtained with mantATP for consistency, a simple kinetic model for the ATPase mechanism was used to simulate the data in Figure 4A. The model was based on the scheme in Figure 2A, but included a two-step triphosphate binding as in Figure 2B. The model assumed that Pi release is irreversible and mantADP remains bound under these conditions as its K d (<50 nM) is much less than the experimental concentrations. The difference in fluorescence intensity between protein-bound mantATP and mantADP was included in the modeling with bound mantATP representing 20% of the overall increase, as shown experimentally. The best-fit simulation is shown in Figure 4B, which gave mantATP binding at 5.7 s^−1, followed by a rapid step (“conformation change”) of 30 s^−1, hydrolysis at 0.25 s^−1 and Pi release is fast (>10 s^−1). […] There is a discrepancy with the fit to the data at long times, as the experimental traces are slightly biphasic, which could be due to a small proportion of the protein having modified activity due to damage, for example.
Data were fitted to theoretical equations using the stopped-flow software or Grafit. Kinetic simulations were performed using Berkeley Madonna (Version 8.3, University of California at Berkeley) and using Global Kinetic Explorer (Kintek). Global fits were performed using Global Kinetic Explorer.

[2] = molecular target: T2, RecG (Thermotoga maritima, UniProt Q9WY48); assay: Stopped-flow mantATP binding in the absence of DNA
T2 construct: made in house
T2 sequence (Q9WY48 1-780): T1 sequence (Q9WY48 1-780)
Description: The kinetics of specific steps of the ATPase cycle were investigated in the absence of DNA, to determine which are modulated by the interaction with DNA. For the association measurements between RecG and mantATP, RecG was mixed with excess mantATP in the stopped-flow apparatus and the fluorescence followed with time. Following fitting by single exponentials, there was a linear relationship between the observed rate constant and nucleotide concentration (Figure S3A).
As done for the RecG⋅DNA complex, measurements were also taken with an excess of RecG over mantATP (Figure S3B). A large, relative rapid, increase in mant fluorescence was observed followed by a small gradual increase. The rate constants are consistent with those at excess mantATP. Under the same conditions of excess RecG over mantATP, mantATP cleavage (acid quench) and Pi release were measured (Figure S3B). […] The cleavage step rate constant was 4×10^−4 s^−1, ∼10^3 slower than in the presence of DNA. […] The cleavage step was greatly stimulated by DNA.
Supplementary file pone.0038270.s003.tif: Figure S3 Kinetic measurements in the absence of DNA. (A) Association kinetics with mantATP. Dependence of the observed rate constants on mantATP concentration from mixing 0.5 µM RecG with excess mantATP under the same conditions as Figure 3. Points shown are typically an average of three individual measurements. The best linear fit gives a slope of 0.4 (±0.15) µM^−1 s^−1 and intercept 1.7 (±0.6) s^−1. (B) Fluorescence trace upon mixing 2.5 µM RecG with 0.5 µM mantATP under the conditions of Figure 4. The trace was fitted by an exponential and a slope giving rates of 0.42 (±0.12) s^−1 for the former. Note that as the fluorescence slowly increases beyond the time course, it was not possible to calibrate the ordinate. Inset: Hydrolysis and Pi release for these conditions. The circles represent single time points for a quenched-flow measurement of mantADP formation. Pi release kinetics (continuous line) were measured for the same mixture containing 10 µM MDCC-PBP. (TIF) Click here for additional data file.

[3] = molecular target: T2, RecG; assay: Titrations of RecG into fluorescent nucleotides in the absence of DNA; assay type: binding
Experimental: The two phases of this fluorescence increase with excess RecG⋅DNA would therefore relate to formation of bound mantATP (1.5-fold intensity increase relative to free nucleotide) and bound mantADP (4.9-fold). This interpretation was supported by titrations of RecG into the fluorescent nucleotides in the absence of DNA.
Steady-state fluorescence was measured using a Cary Eclipse fluorimeter (Varian) with a xenon light source. Absorbance spectroscopy was performed using a Beckman DU640 spectrophotometer.

With `CNc1ccccc1C(=O)O[C@H]1[C@@H](O)[C@H](n2cnc3c(N)ncnc32)O[C@@H]1COP(=O)(O)OP(=O)(O)OP(=O)(O)O` [mantATP, 2′(3′)-O-(N-methylanthraniloyl)ATP] the “Pi release (best-fit simulation)” value [1] was over 10 s⁻¹, the “hydrolysis (best-fit simulation)” value [1] was 0.25 s⁻¹ and the “mantATP binding (best-fit simulation)” value [1] was 5.7 s⁻¹. For the same compound, the “rapid step (conformation change) (best-fit simulation)” value [1] was 30 s⁻¹, the “intercept (dissociation)” value ([2]; 0.5 µM RecG, excess mantATP) was 1.7 (±0.6) s^−1 and the “second order association rate constant (slope)” value ([2]; 0.5 µM RecG, excess mantATP) was 0.4 (±0.15) µM^−1s^−1. The “rate of exponential fluorescence increase” value ([2]; 2.5 µM RecG with 0.5 µM mantATP) was 0.42 (±0.12) s^−1, the pKd ([2]; from intercept and slope) was 5.37 and the “increase in fluorescence on titration with RecG” value [3] was 1.3 fold.
